Results on 25 compounds are retold here after patent US20230391786A1, “cGAS INHIBITORS” (Eli Lilly and Company, priority 2022, published 2023).

The term IC50 denotes the point on the concentration scale where inhibition reaches its midpoint.

In one assay the target is recombinant human cGAS (Homo sapiens (Human), UniProt Q8N884). Kind of assay: In vitro inhibition assay of cGAS activity (cGAMP production, RapidFire mass spectrometry). The class given is biochemical. The settings on record: 10 nM recombinant human cGAS, 60 nM 75-bp dsDNA, ATP, GTP, room temperature 3 hours, read-out: IC50 (μM), In vitro inhibition assay for Compounds 95-348. Summed up: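 Full-length His6-tagged human cGAS (10 nM, E. coli-expressed) was incubated 3 h at room temperature with 60 nM 75-bp dsDNA, ATP, 50 μM GTP and compound at pH 7.5 with 5 mM MgCl2. cGAMP formation was measured by RapidFire mass spectrometry, and IC50 was taken from a 4-parameter logistic fit.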

Assay [1] concerns cGAS activity in THP1 cells (IFNb as marker). Briefly: Cellular assay to measure cGAS activity (IFNb production in PMA-differentiated THP1 cells stimulated by RDG-Adenovirus-GFP). It is filed as cell-based, human. Conditions: Homo sapiens, THP-1, THP1 cells, PMA differentiated, RDG-Adenovirus-GFP 1000 MOI, IFNb AlphaLISA, overnight incubation; read-out: IC50 (μM), Cellular assay for Compounds 95-348. Summed up:
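PMA-differentiated THP1 cells were infected with RDG-Adenovirus-GFP at 1000 MOI for 4 h, then exposed overnight to test compounds. IFNb in the supernatant was quantified by AlphaLISA as a cGAS activity marker, and IC50 was fitted with a 4-parameter logistic equation.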

recombinant human cGAS, sequence (Q8N884 whole entry): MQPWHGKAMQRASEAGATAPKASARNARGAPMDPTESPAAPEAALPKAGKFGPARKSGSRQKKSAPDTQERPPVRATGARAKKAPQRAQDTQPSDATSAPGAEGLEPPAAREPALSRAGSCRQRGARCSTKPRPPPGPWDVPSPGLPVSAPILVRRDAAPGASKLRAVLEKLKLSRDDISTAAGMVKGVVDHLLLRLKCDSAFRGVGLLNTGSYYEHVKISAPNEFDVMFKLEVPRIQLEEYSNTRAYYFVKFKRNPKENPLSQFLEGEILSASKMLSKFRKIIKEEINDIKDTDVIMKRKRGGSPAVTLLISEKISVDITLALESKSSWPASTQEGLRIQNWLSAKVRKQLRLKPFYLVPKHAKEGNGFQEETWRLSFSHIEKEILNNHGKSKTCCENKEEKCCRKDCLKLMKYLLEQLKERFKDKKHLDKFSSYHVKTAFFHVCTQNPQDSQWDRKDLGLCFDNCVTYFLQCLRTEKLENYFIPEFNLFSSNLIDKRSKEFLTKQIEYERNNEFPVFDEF

Consider `N#CCOc1cc(Cl)c(Cl)c2c1c(-c1cn[nH]c1)c1n2CCN(C(=O)[C@@H]2COCCO2)C1` [Example 285, (S)-2-((6,7-Dichloro-2-(1,4-dioxane-2-carbonyl)-10-(1H-pyrazol-4-yl)-1,2,3,4-tetrahydropyrazino[1,2-a]indol-9-yl)oxy)acetonitrile], for which the half-inhibitory concentration (IC50) on recombinant human cGAS amounted to 0.0126 µM; in assay [1] it was 1.19 µM.
Take `N#CCOc1cc(Cl)c(Cl)c2c1c(-c1cn[nH]c1)c1n2CCN(C(=O)c2cnccn2)C1` [Example 286, 2-((6,7-Dichloro-2-(pyrazine-2-carbonyl)-10-(1H-pyrazol-4-yl)-1,2,3,4-tetrahydropyrazino[1,2-a]indol-9-yl)oxy)acetonitrile]: the half-maximal inhibitory concentration (IC50) at recombinant human cGAS was determined as 0.0131 µM; in assay [1], 0.455 µM.
The matching figures for `N#CCOc1cc(Cl)c(Cl)c2c1c(-c1cn[nH]c1)c1n2CCN(C(=O)Cn2cncn2)C1` [Example 287, 2-((2-(2-(1H-1,2,4-Triazol-1-yl)acetyl)-6,7-dichloro-10-(1H-pyrazol-4-yl)-1,2,3,4-tetrahydropyrazino[1,2-a]indol-9-yl)oxy)acetonitrile]: 0.0203 µM and 5.11 µM.
The matching figures for `N#CCOc1cc(Cl)c(Cl)c2c1c(-c1cn[nH]c1)c1n2CCN(C(=O)C2COCCO2)C1` (centres unmarked) [Example 288, 2-((6,7-Dichloro-2-(1,4-dioxane-2-carbonyl)-10-(1H-pyrazol-4-yl)-1,2,3,4-tetrahydropyrazino[1,2-a]indol-9-yl)oxy)acetonitrile]: 0.0242 µM and 0.56 µM.
Regarding `N#CCOc1cc(Cl)c(Cl)c2c1c(-c1cn[nH]c1)c1n2CCN(C(=O)CN2CCOCC2)C1` [Example 289, 2-((6,7-Dichloro-2-(2-morpholinoacetyl)-10-(1H-pyrazol-4-yl)-1,2,3,4-tetrahydropyrazino[1,2-a]indol-9-yl)oxy)acetonitrile], the IC50 on recombinant human cGAS amounted to 0.0303 µM; in assay [1], 3.73 µM.
Turning to `N#CCOc1cc(Cl)c(Cl)c2c1c(-c1cn[nH]c1)c1n2CCN(C(=O)CN2CCOCC2=O)C1` [Example 290, 2-((6,7-Dichloro-2-(2-(3-oxomorpholino)acetyl)-10-(1H-pyrazol-4-yl)-1,2,3,4-tetrahydropyrazino[1,2-a]indol-9-yl)oxy)acetonitrile], the IC50 at recombinant human cGAS worked out at 0.0321 µM; in assay [1], 6.97 µM.
Consider `CN1CC(C(=O)N2CCn3c(c(-c4cn[nH]c4)c4c(OCC#N)cc(Cl)c(Cl)c43)C2)CC1=O` (centres unmarked) [Example 291, 2-((6,7-Dichloro-2-(1-methyl-5-oxopyrrolidine-3-carbonyl)-10-(1H-pyrazol-4-yl)-1,2,3,4-tetrahydropyrazino[1,2-a]indol-9-yl)oxy)acetonitrile], for which the IC50 at recombinant human cGAS was 0.0325 µM; in assay [1], 4.91 µM.
On the same counts, the results for `N#CCOc1cc(Cl)c(Cl)c2c1c(-c1cn[nH]c1)c1n2CCN(C(=O)CCn2cncn2)C1` [Example 292, 2-((2-(3-(1H-1,2,4-Triazol-1-yl)propanoyl)-6,7-dichloro-10-(1H-pyrazol-4-yl)-1,2,3,4-tetrahydropyrazino[1,2-a]indol-9-yl)oxy)acetonitrile] are 0.0365 µM and 4.08 µM.
The matching figures for `Cc1nc(C)n(CC(=O)N2CCn3c(c(-c4cn[nH]c4)c4c(OCC#N)cc(Cl)c(Cl)c43)C2)n1` [Example 293, 2-((6,7-Dichloro-2-(2-(3,5-dimethyl-1H-1,2,4-triazol-1-yl)acetyl)-10-(1H-pyrazol-4-yl)-1,2,3,4-tetrahydropyrazino[1,2-a]indol-9-yl)oxy)acetonitrile]: 0.0447 µM and more than 10 µM.
For the compound `CN1CCOC(C(=O)N2CCn3c(c(-c4cn[nH]c4)c4c(OCC#N)cc(Cl)c(Cl)c43)C2)C1` (centres unmarked) [Example 294, 2-((6,7-Dichloro-2-(4-methylmorpholine-2-carbonyl)-10-(1H-pyrazol-4-yl)-1,2,3,4-tetrahydropyrazino[1,2-a]indol-9-yl)oxy)acetonitrile], the values for the IC50 (at recombinant human cGAS; in assay [1]) were 0.0479 µM and 0.366 µM, respectively.
The matching figures for `N#CCOc1cc(Cl)c(Cl)c2c1c(-c1cn[nH]c1)c1n2CCN(C(=O)c2nccnc2C(=O)N2CCCCC2)C1` [Example 295, 2-((6,7-Dichloro-2-(3-(piperidine-1-carbonyl)pyrazine-2-carbonyl)-10-(1H-pyrazol-4-yl)-1,2,3,4-tetrahydropyrazino[1,2-a]indol-9-yl)oxy)acetonitrile]: 0.0561 µM and 2.14 µM.
`N#CCOc1cc(Cl)c(Cl)c2c1c(-c1cn[nH]c1)c1n2CCN(C(=O)c2nccnc2C(=O)N2CCOCC2)C1` [Example 296, 2-((6,7-Dichloro-2-(3-(morpholine-4-carbonyl)pyrazine-2-carbonyl)-10-(1H-pyrazol-4-yl)-1,2,3,4-tetrahydropyrazino[1,2-a]indol-9-yl)oxy)acetonitrile]: the IC50 at recombinant human cGAS amounted to 0.061 µM; in assay [1] it was 4.78 µM.
On the same counts, the results for `NC(=O)CCC(=O)N1CCn2c(c(-c3cn[nH]c3)c3ccc(Cl)c(Cl)c32)C1` [Example 297, 4-(6,7-Dichloro-10-(1H-pyrazol-4-yl)-3,4-dihydropyrazino[1,2-a]indol-2(1H)-yl)-4-oxobutanamide] are 0.0251 µM and more than 10 µM.
For the compound `O=C(CC1COCCOC1)N1CCn2c(c(-c3cn[nH]c3)c3ccc(Cl)c(Cl)c32)C1` [Example 298, 1-(6,7-Dichloro-10-(1H-pyrazol-4-yl)-3,4-dihydropyrazino[1,2-a]indol-2(1H)-yl)-2-(1,4-dioxepan-6-yl)ethan-1-one], the values for the IC50 (at recombinant human cGAS; in assay [1]) were 0.0234 µM and more than 10 µM, respectively.
Regarding `O=C(CC1COCCO1)N1CCn2c(c(-c3cn[nH]c3)c3ccc(Cl)c(Cl)c32)C1` (centres unmarked) [Example 299, 1-(6,7-Dichloro-10-(1H-pyrazol-4-yl)-3,4-dihydropyrazino[1,2-a]indol-2(1H)-yl)-2-(1,4-dioxan-2-yl)ethan-1-one], the IC50 on recombinant human cGAS is 0.0257 µM; in assay [1] it was more than 10 µM.
On to `CN1CCC(CC(=O)N2CCn3c(c(-c4cn[nH]c4)c4ccc(Cl)c(Cl)c43)C2)C1=O` (centres unmarked) [Example 300, 3-(2-(6,7-Dichloro-10-(1H-pyrazol-4-yl)-3,4-dihydropyrazino[1,2-a]indol-2(1H)-yl)-2-oxoethyl)-1-methylpyrrolidin-2-one], for which the IC50 at recombinant human cGAS is 0.0288 µM; in assay [1], more than 10 µM.
As to `CN(C)C(=O)COCC(=O)N1CCn2c(c(-c3cn[nH]c3)c3ccc(Cl)c(Cl)c32)C1` [Example 301, 2-(2-(6,7-Dichloro-10-(1H-pyrazol-4-yl)-3,4-dihydropyrazino[1,2-a]indol-2(1H)-yl)-2-oxoethoxy)-N,N-dimethylacetamide], the IC50 was 0.0291 µM at recombinant human cGAS and more than 10 µM in assay [1].
For the compound `CN(C)C(=O)CC(=O)N1CCn2c(c(-c3cn[nH]c3)c3ccc(Cl)c(Cl)c32)C1` [Example 302, 3-(6,7-Dichloro-10-(1H-pyrazol-4-yl)-3,4-dihydropyrazino[1,2-a]indol-2(1H)-yl)-N,N-dimethyl-3-oxopropanamide], the IC50 at recombinant human cGAS was found to be 0.0323 µM; in assay [1], 6.95 µM.
Consider `CN1CCC(C(=O)N2CCn3c(c(-c4cn[nH]c4)c4ccc(Cl)c(Cl)c43)C2)CC1=O` (centres unmarked) [Example 303, 4-(6,7-Dichloro-10-(1H-pyrazol-4-yl)-1,2,3,4-tetrahydropyrazino[1,2-a]indole-2-carbonyl)-1-methylpiperidin-2-one], for which the IC50 is 0.0349 µM on recombinant human cGAS and more than 10 µM in assay [1].
The matching figures for `O=C1COCCN1CCC(=O)N1CCn2c(c(-c3cn[nH]c3)c3ccc(Cl)c(Cl)c32)C1` [Example 304, 4-(3-(6,7-Dichloro-10-(1H-pyrazol-4-yl)-3,4-dihydropyrazino[1,2-a]indol-2(1H)-yl)-3-oxopropyl)morpholin-3-one]: 0.0351 µM and 8.47 µM.
Turning to `CN1CC(C(=O)N2CCn3c(c(-c4cn[nH]c4)c4ccc(Cl)c(Cl)c43)C2)CCC1=O` (centres unmarked) [Example 305, 5-(6,7-Dichloro-10-(1H-pyrazol-4-yl)-1,2,3,4-tetrahydropyrazino[1,2-a]indole-2-carbonyl)-1-methylpiperidin-2-one], the IC50 was 0.0378 µM at recombinant human cGAS and more than 10 µM in assay [1].
The matching figures for `COCCOCC(=O)N1CCn2c(c(-c3cn[nH]c3)c3ccc(Cl)c(Cl)c32)C1` [Example 306, 1-(6,7-Dichloro-10-(1H-pyrazol-4-yl)-3,4-dihydropyrazino[1,2-a]indol-2(1H)-yl)-2-(2-methoxyethoxy)ethan-1-one]: 0.0379 µM and more than 10 µM.
`O=C(CN1C(=O)CSC1=O)N1CCn2c(c(-c3cn[nH]c3)c3ccc(Cl)c(Cl)c32)C1` [Example 307, 3-(2-(6,7-Dichloro-10-(1H-pyrazol-4-yl)-3,4-dihydropyrazino[1,2-a]indol-2(1H)-yl)-2-oxoethyl)thiazolidine-2,4-dione]: the IC50 is 0.0398 µM on recombinant human cGAS and more than 10 µM in assay [1].
As for `CC(=O)N(C)CCC(=O)N1CCn2c(c(-c3cn[nH]c3)c3ccc(Cl)c(Cl)c32)C1` [Example 308, N-(3-(6,7-Dichloro-10-(1H-pyrazol-4-yl)-3,4-dihydropyrazino[1,2-a]indol-2(1H)-yl)-3-oxopropyl)-N-methylacetamide], the IC50 turned out to be 0.0423 µM at recombinant human cGAS and 7.9 µM in assay [1].
In the case of `CN1CCOCC1C(=O)N1CCn2c(c(-c3cn[nH]c3)c3ccc(Cl)c(Cl)c32)C1` (centres unmarked) [Example 309, (6,7-Dichloro-10-(1H-pyrazol-4-yl)-3,4-dihydropyrazino[1,2-a]indol-2(1H)-yl)(4-methylmorpholin-3-yl)methanone], the IC50 on recombinant human cGAS was 0.0427 µM; in assay [1], more than 10 µM.
